Measured values as given in paper PMC3661926 (Acta Neuropathologica, 2013).
Where two headings read alike, the source gives them in different places.

What was measured:
[1] = molecular target: PrP^Sc (RML prion strain) (Mus musculus, UniProt P04925); test: biochemical
PrP^Sc (vCJD prions) = PrP^Sc (vCJD prions) (Homo sapiens, UniProt P04156); test: biochemical
[2] = tested on: prion strains RML, ME7, 301C, sCJD, vCJD; format: biochemical, mouse and human; conditions: 1 μl of 10 mM compound solution in DMSO
RML scrapie [3] = test: whole plant or invertebrate; format: in vivo, C57BL/6 mice
RML scrapie [4] = format: in vivo, C57BL/6 mice; conditions: for Median/Mean* Survival Therapy / difference of survival therapy vs control: C57BL/6, RML i.c., 250 mg/kg
[5] = tested on: rotenone-treated C57Bl/6J mice; conditions: mouse, in vivo
MPTP-treated mice = conditions: mouse, in vivo
actin = format: biochemical
[6] = in vivo
[7] = C57/BL6, mouse, in vivo
[8] = mouse, in vivo, 2000 mg/kg
[9] = rat, in vivo, 2000 mg/kg
[10] = tested on: Salmonella typhimurium strains TA 98, TA 100, TA 102, TA 1535 and TA 1537
[11] = tested on: cultured human peripheral lymphocytes
in vivo = conditions: C57/BL6, mouse; for half-life: ip, 1 mg
physchem = conditions: water

Chain of PrP^Sc (RML prion strain) (P04925 23-230 limits assumed): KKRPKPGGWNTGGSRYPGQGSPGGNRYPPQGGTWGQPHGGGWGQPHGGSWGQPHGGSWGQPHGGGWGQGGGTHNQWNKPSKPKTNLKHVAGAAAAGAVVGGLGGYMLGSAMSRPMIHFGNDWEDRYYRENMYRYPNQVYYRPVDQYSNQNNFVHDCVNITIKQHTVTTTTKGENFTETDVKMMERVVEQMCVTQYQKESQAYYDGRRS

Brc1cccc(-c2cc(-c3ccc4c(c3)OCO4)n[nH]2)c1 [anle138b, 3-(1,3-benzodioxol-5-yl)-5-(3-bromophenyl)-1H-pyrazole]
EC50 [1]: 7.3 µM | inhibition at 10 µM ([1]; read-out: % inhibition PrP^Sc PMCA): 84% | EC50 (PrP^Sc (vCJD prions)): 7.1 µM | inhibitory activity in PMCA, all prion strains tested [2]: strong inhibitory activity in all prion strains tested | % inhibition PrP^Sc in vivo (c) (RML scrapie [3]; PrP^Sc level in brain 106 days after i.c. infection, treatment 24 days: 14 days i.p. 0.84 mg, 2 × 5 days oral gavage 1 mg): 108% | % inhibition PrP^Sc in vivo (b) (RML scrapie [3]; PrP^Sc level in spleen 35 days after i.p. infection, 34 days treatment with 1 mg compound oral in peanut butter): 57% | change of PrPSc levels in brain, mixed application scheme (RML scrapie [3]; from 80 dpi: 14 days i.p. 0.84 mg, 2 x 5 days gavage 1 mg, measured at 95 and 106 dpi): decrease in PrPSc levels | inhibition in vivo at 1 mg (RML scrapie [3]; in Mus musculus, po, 2880 h, read-out: % inhibition PrP^Sc in vivo (a)): 78% | motor performance in prion infected mice (RML scrapie [4]; 160 d.p.i., arena movement tracking): unimpaired | Median/Mean* Survival Therapy (RML scrapie [4]; 0 dpi oral): 355 days | difference of survival therapy vs control (RML scrapie [4]; 0 dpi oral): 175 days | Median/Mean* Survival Therapy (RML scrapie [4]; 80 dpi oral): 242 days | difference of survival therapy vs control (RML scrapie [4]; 80 dpi oral): 74 days | Median/Mean* Survival Therapy (RML scrapie [4]; 120 dpi oral): 224 days | difference of survival therapy vs control (RML scrapie [4]; 120 dpi oral): 52 days | size distribution of PrP^Sc aggregates (sucrose-gradient centrifugation) (RML scrapie [4]; brain homogenates of treated mice, fractions 7–12): strong reduction of high molecular weight species | pyknotic nuclei, cerebellar granule cell layer (RML scrapie [4]; mouse, in vivo): significantly reduced number of pyknotic nuclei | time for which weight loss is prevented (RML scrapie [4]; treatment from 80 dpi onwards): ~ 100 days | time for which further weight loss is inhibited (RML scrapie [4]; treatment from 120 dpi): ~ 70 days | Median survival (RML scrapie [4]; treatment from day 80 post i.c. infection (5 mg daily oral)): 242,5 | Median survival (RML scrapie [4]; treatment from day 120 post i.c. infection (5 mg daily oral)): 224,0 | 1-h stool collection gut motility test [5]: complete rescue of enteric function | motor performance (Rotarod) [5]: significantly improved motor performance | loss of dopaminergic (TH-positive) neurons in substantia nigra (MPTP-treated mice): significantly ameliorated | effect on actin polymerization (actin): do not affect actin polymerization | metabolites in brain extracts (HPLC, high resolution MS) ([6]; C57/BL6, mouse): did not identify metabolites of anle138b | conc. brain ([6]; mouse, po): 34.1 nmol/g | AUC after oral application compared to i.p. application [7]: approximately 50% | acute toxicity, single oral administration [8]: did not reveal any signs of toxicity and no mortality | acute toxicity, single oral administration [9]: not reveal any signs of toxicity and no mortality | concentration with test item precipitation [10]: ≥ 100 µg/plate | cytotoxicity, preliminary test [10]: No signs of cytotoxicity | mutagenic effect (revertant colony numbers) [10]: No mutagenic effect | clastogenic activity, conclusion [11]: no indications of mutagenic properties | Kp (in vivo): ~3 | half-life (in vivo; half-life t½ in brain): 2.9 h | half-life (in vivo; half-life t½ in serum): 2.4 h | solubility (physchem): < 1 µM
